This is an account of results in US7863298B2, “Bridged ring structures as pharmaceutical agents” (Exelixis, Inc., priority 2003, dated 2011).

Some results are limits rather than exact numbers.

Tested on in one data set: not listed separately
The data set is described as follows: plasma calcium determination in athymic nude mice. In kind it is in vivo. The conditions noted are these: four doses, oral gavage every other day for 14 days, Day 14; FIG. 1. The procedure:
A (three day) effective dose study was conducted on normal BALB/c mice in order to select a compound for the athymic nude mice study described below. Two-week old male Balb/c mice (Harlan) were weighed and sorted into groups of six according to Day-1 weight. Animals were given a standard diet and housed under normal lighting conditions. Compounds were administered in sesame oil vehicle with 4% ethanol. Ethanol was removed by evaporation by sparging with nitrogen prior to dosing orally by gavage via a 1 cc syringe with a 20 G disposable feeding needle (0.1 mL dose volume). Dosing was daily for three days, with animal weights measured on Days 0, 1 and 3. […] Animal weights were monitored on Day 3, 7, 10 and 14. […]
Calcium determination was carried out in a micronized plate format with heparinized plasma samples utilizing a colorimetric assay (Sigma 588-3). […] When present in an acidic medium, the calcium Arsenazo complex forms a purple color that was determined using a standard plate reader at […] against a standard curve.
FIG. 1 compares the effect of 1α,25-dihydroxyvitamin D3, against four different doses of one selected compound of the current invention, Compound B on plasma calcium levels in athymic nude mice at Day 14 measured 3 hours after final dose. Dosage is measured in μg/kg and plasma calcium levels are in mg/dl. […]
With `CCC(CC)(c1ccc(C#CC(O)C(C)(C)C)c(C)c1)c1ccc(OC[C@@H](O)CO)c(C)c1` (single isomer, unassigned) [compound B], the plasma calcium concentration entry is recorded as “without elevating plasma calcium concentration”.

The next data set concerns 24-hydroxylase. Briefly: kidney 24-hydroxylase gene expression in athymic nude mice (RT-PCR). In kind it is in vivo. Conditions: four doses, oral gavage every other day for 14 days; FIG. 2. The procedure:
A (three day) effective dose study was conducted on normal BALB/c mice in order to select a compound for the athymic nude mice study described below. Two-week old male Balb/c mice (Harlan) were weighed and sorted into groups of six according to Day-1 weight. Animals were given a standard diet and housed under normal lighting conditions. Compounds were administered in sesame oil vehicle with 4% ethanol. Ethanol was removed by evaporation by sparging with nitrogen prior to dosing orally by gavage via a 1 cc syringe with a 20 G disposable feeding needle (0.1 mL dose volume). Dosing was daily for three days, with animal weights measured on Days 0, 1 and 3. […] Animal weights were monitored on Day 3, 7, 10 and 14. […] The RT reactions were performed in a DNA Engine thermal cycler (PTC-200, MJ Research) (50° C. 30 minutes; 72° C. 5 minutes) Real-Time Quantitative PCR was performed in a 384 well assay plate using the Prism 7900HT (ABI) using the entire product from the reverse transcription reaction above (5 uL). […] Results were analyzed using the data analysis and software packet (SDS) provided with the instrumentation. FIG. 1 compares the effect of 1α,25-dihydroxyvitamin D3, against four different doses of one selected compound of the current invention, Compound B on plasma calcium levels in athymic nude mice at Day 14 measured 3 hours after final dose. […]
Turning to `CCC(CC)(c1ccc(C#CC(O)C(C)(C)C)c(C)c1)c1ccc(OC[C@@H](O)CO)c(C)c1` (single isomer, unassigned) [compound B], the “RNA expression of kidney 24-hydroxylase (relative to cyclophilin)” value is “dose responsive increase”.

Another data set concerns the target T1, VDR (Homo sapiens, UniProt P11473).
T1 construct: expressed in transfected cells; host or cells: CV-1 (African green monkey kidney cells), transient transfection
T1 sequence (P11473 92-425): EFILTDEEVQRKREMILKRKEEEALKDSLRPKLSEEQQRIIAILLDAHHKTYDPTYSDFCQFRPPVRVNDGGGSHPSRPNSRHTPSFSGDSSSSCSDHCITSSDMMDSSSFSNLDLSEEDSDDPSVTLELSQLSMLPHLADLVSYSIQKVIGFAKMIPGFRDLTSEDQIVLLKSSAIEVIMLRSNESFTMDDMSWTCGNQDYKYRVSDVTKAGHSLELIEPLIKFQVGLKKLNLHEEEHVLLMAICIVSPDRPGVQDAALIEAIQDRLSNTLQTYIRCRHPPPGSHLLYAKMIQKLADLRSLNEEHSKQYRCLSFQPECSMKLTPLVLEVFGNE
T1 sequence (Q15788 381-891 partner limits assumed): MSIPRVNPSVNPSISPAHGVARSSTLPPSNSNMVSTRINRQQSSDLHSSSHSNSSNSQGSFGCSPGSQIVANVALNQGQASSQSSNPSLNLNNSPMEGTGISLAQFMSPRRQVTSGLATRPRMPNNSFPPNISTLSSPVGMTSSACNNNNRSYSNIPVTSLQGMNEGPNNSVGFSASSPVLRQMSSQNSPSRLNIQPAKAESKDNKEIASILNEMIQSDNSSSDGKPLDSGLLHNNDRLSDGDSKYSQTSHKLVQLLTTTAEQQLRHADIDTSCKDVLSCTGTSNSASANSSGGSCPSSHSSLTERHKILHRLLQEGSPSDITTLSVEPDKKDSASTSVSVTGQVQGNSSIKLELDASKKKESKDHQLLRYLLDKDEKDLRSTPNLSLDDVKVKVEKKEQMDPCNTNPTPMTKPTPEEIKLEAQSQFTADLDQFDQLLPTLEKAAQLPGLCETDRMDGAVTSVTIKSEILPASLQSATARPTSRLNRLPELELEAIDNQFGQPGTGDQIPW
The data set is described as follows: modified mammalian two-hybrid assay (VDR / SRC-1 interaction, luciferase reporter). The conditions noted are these: CV-1 cells, exemplary compounds, read-out: agonist activity EC50. In kind it is cell-based. The procedure:
Compound activity was determined using a modified mammalian two-hybrid assay, using the interaction of VDR to the co-factor SRC-1 to monitor receptor activation.
Following incubation with transfection reagents for 5 hours at 37° C., transfected cells were trypsinized, centrifuged, resuspended in media and added to the assay plates, (45 μl, 5000 cells per well). The assay plates containing both compounds and screening cells were incubated for approximately 20 hours at 37° C. in a tissue culture incubator.
After incubation of the transfected cells with compounds, media was aspirated and lysis buffer (1% Triton X 100, 10% Glycerol, 5 mM Dithiothreitol,1 mM EGTA, 25 mM Tricine pH 7.8) added.
For orientation: A reporter such as luciferase makes a cellular process visible.
On to `CC(=O)N1CCC(c2ccc(OCC(=O)C(C)(C)C)c(C)c2)(c2ccc(OCC(=O)C(C)(C)C)c(C)c2)CC1` [1-(4-{1-Acetyl-4-[4-(3,3-dimethyl-2-oxo-butoxy)-3-methyl-phenyl]-piperidin-4-yl}-2-methyl-phenoxy)-3,3-dimethyl-butan-2-one], for which the EC50 (commonly the concentration that produces a half-maximal response) was below 10 µM.
`Cc1cc(C(c2ccccc2)(c2ccc(OCC(O)C(C)(C)C)c(C)c2)C(F)(F)F)ccc1OCC(O)CO` (stereo not drawn) [3-(2-Methyl-4-{2,2,2-trifluoro-1-[4-(2-hydroxy-3,3-dimethyl-butoxy)-3-methyl-phenyl]-1-phenyl-ethyl}-phenoxy)-propane-1,2-diol]: the EC50 is below 10 µM.
Still for that read-out and setting: in the case of `Cc1cc(C(c2ccccc2)(c2ccc(OCC(O)C(C)(C)C)c(C)c2)C(F)(F)C(F)(F)F)ccc1OCC(O)CO` (stereo not drawn) [3-(2-Methyl-4-{2,2,3,3,3-pentafluoro-1-[4-(2-hydroxy-3,3-dimethyl-butoxy)-3-methyl-phenyl]-1-phenyl-propyl}-phenoxy)-propane-1,2-diol] it was below 10 µM; in that of `CCC(CC)(c1ccc(CCC(O)C(C)(C)C)cc1)c1ccc(OC[C@@H](O)CO)c(C)c1` (stereo partly drawn) [3-(4-{1-Ethyl-1-[4-(3-hydroxy-4,4-dimethylpentyl)-phenyl]-propyl}-2-methylphenoxy)-propane-1,2(S)-diol], below 10 µM.
Still for that read-out and setting: the figure for `CCC(O)(CC)CCc1ccc(C(CC)(CC)c2ccc(OC[C@@H](O)CO)c(C)c2)cc1C` [3-(4-{1-ethyl-1-[4-(3-ethyl-3-hydroxypentyl)-3-methylphenyl]-propyl}-2-methyl-phenoxy)-propane-1,2(S)-diol] is below 10 µM.
Still for that read-out and setting: the figure for `CCC(CC)(c1ccc(CCC(C)(C)O)c(C)c1)c1ccc(OC[C@@H](O)CO)c(C)c1` [3-(4-{1-ethyl-1-[4-(3-hydroxy-3-methylbutyl)-3-methylphenyl]-propyl}-2-methylphenoxy)-propane 1,2(S)-diol] is below 10 µM.
As to `CCC(CC)(c1ccc(/C=C\C(O)C(C)(C)C)c(C)c1)c1ccc(OC[C@@H](O)CO)c(C)c1` (stereo partly drawn) [(Z)-3-(4-{1-ethyl-1-[4-(3-hydroxy-4,4-dimethylpent-1-enyl)-3-methylphenyl]-propyl}-2-methylphenoxy)-propane-1,2(S)-diol], the EC50 is below 10 µM.
